Article PMC8510344, “Bile-Acid-Appended Triazolyl Aryl Ketones: Design, Synthesis, In Vitro Anticancer Activity and Pharmacokinetics in Rats” (Molecules, 2021)

How the values were obtained:
[1] = MTT cytotoxicity assay, normal cell line HEK 293; format: cell-based; conditions: human, HEK 293 cells, HEK 293 normal cells, 48 h exposure
Procedure: (§1) The cytotoxicity activity of all the conjugates (6aa–6df) was evaluated in vitro by MTT assay against two different breast cancer cell lines 4T1 (murine) and MCF-7 (human) and HEK 293 (human) as normal cell line. DTX was used as positive control. Cells were grown in DMEM supplemented with 10% FBS and 1% antibiotic solution and incubated at 5% CO2 and 37 °C for 24 h. The stock solutions of all the conjugates were prepared in DMSO and diluted for further use. Briefly, 5 × 10^3 cells/well were seeded in 96-well cell culture plates and allowed to adhere for 24 h. Cell inhibition (%) was determined after 48 h exposure to the compounds at 1–25 μM concentration. After 48 h, MTT assay was performed and the yellow tetrazolium salt (MTT) was reduced in metabolically active cells to form insoluble purple formazan crystals, which were solubilized by the addition of DMSO. The optical density (OD) was recorded at 560 nm and 630 nm as reference wavelength. Percentage cell inhibition was determined by comparison with untreated cells.

[2] = tested on: 4T1 (mouse mammary carcinoma) cells; assay: MTT cytotoxicity assay, 4T1; format: cell-based; conditions: for viability at 10 µM: 48 h exposure, read-out: % Cell Viability at 10 µM 4T1; for IC50: 48 h
Procedure: as §1

[3] = tested on: MCF-7 (human breast adenocarcinoma) cells; assay: MTT cytotoxicity assay, MCF-7; format: cell-based; conditions: for viability at 10 µM: MCF7, 10 µM, 48 h exposure, read-out: % Cell Viability at 10 µM MCF-7; for IC50: 48 h
Procedure: as §1

Compound `C[C@H](CCC(=O)OCc1cn(CC(=O)c2ccccc2)nn1)C1CCC2C3C(C[C@H](O)[C@@]21C)[C@@]1(C)CC[C@@H](O)CC1C[C@H]3O` (stereo partly drawn) [6aa, (1-(2-Oxo-2-phenylethyl)-1H-1,2,3-triazol-4-yl)methyl (4R)-4-((3R,7R,10S,12S,13R)-3,7,12-trihydroxy-10,13-dimethylhexadecahydro-1H-cyclopenta[a]phenanthren-17-yl)pentanoate] has a viability at 48 h, 10 µM [1] of 86.1%, a viability at 10 µM ([2]; Mus musculus) of 74.3% and a viability at 10 µM ([3]; Homo sapiens) of 77.3%. For the same compound, the melting point was 108 to 109 °C.

`Cc1ccc(C(=O)Cn2cc(COC(=O)CC[C@@H](C)C3CCC4C5C(C[C@H](O)[C@@]43C)[C@@]3(C)CC[C@@H](O)CC3C[C@H]5O)nn2)cc1` (stereo partly drawn) [6ab, (1-(2-Oxo-2-(p-tolyl)ethyl)-1H-1,2,3-triazol-4-yl)methyl (4R)-4-((3R,7R,10S,12S,13R)-3,7,12-trihydroxy-10,13-dimethylhexadecahydro-1H-cyclopenta[a]phenanthren-17-yl)pentanoate] showed a viability at 48 h, 10 µM [1] of 87.6%, a viability at 10 µM ([2]; Mus musculus) of 72.9% and a viability at 10 µM ([3]; Homo sapiens) of 57.4%.

For `COc1ccc(C(=O)Cn2cc(COC(=O)CC[C@@H](C)C3CCC4C5C(C[C@H](O)[C@@]43C)[C@@]3(C)CC[C@@H](O)CC3C[C@H]5O)nn2)cc1` (stereo partly drawn) [6ac, (1-(2-(4-Methoxyphenyl)-2-oxoethyl)-1H-1,2,3-triazol-4-yl)methyl (4R)-4-((3R,7R,10S,12S,13R)-3,7,12-trihydroxy-10,13-dimethylhexadecahydro-1H-cyclopenta[a]phenanthren-17-yl)pentanoate], the viability at 48 h, 10 µM [1] was 87.9%, the viability at 10 µM ([2]; Mus musculus) was 80% and the viability at 10 µM ([3]; Homo sapiens) was 55.6%. For the same compound, the melting point was 176 to 177 °C.

`C[C@H](CCC(=O)OCc1cn(CC(=O)c2ccc(F)cc2)nn1)C1CCC2C3C(C[C@H](O)[C@@]21C)[C@@]1(C)CC[C@@H](O)CC1C[C@H]3O` (stereo partly drawn) [6ad, (1-(2-(4-Fluorophenyl)-2-oxoethyl)-1H-1,2,3-triazol-4-yl)methyl (4R)-4-((3R,7R,10S,12S,13R)-3,7,12-trihydroxy-10,13-dimethylhexadecahydro-1H-cyclopenta[a]phenanthren-17-yl)pentanoate] showed a viability at 48 h, 10 µM [1] of 86.8%, a viability at 10 µM ([2]; Mus musculus) of 47.7% and a viability at 10 µM ([3]; Homo sapiens) of 66.5%. It also gave a melting point of 152 to 153 °C.

Work on `C[C@H](CCC(=O)OCc1cn(CC(=O)c2ccc(Cl)cc2)nn1)C1CCC2C3C(C[C@H](O)[C@@]21C)[C@@]1(C)CC[C@@H](O)CC1C[C@H]3O` (stereo partly drawn) [6ae, (1-(2-(4-Chlorophenyl)-2-oxoethyl)-1H-1,2,3-triazol-4-yl)methyl (4R)-4-((3R,7R,10S,12S,13R)-3,7,12-trihydroxy-10,13-dimethylhexadecahydro-1H-cyclopenta[a]phenanthren-17-yl)pentanoate] yielded a viability at 48 h, 10 µM [1] of 96.2%, a viability at 10 µM ([2]; Mus musculus) of 58.9% and a viability at 10 µM ([3]; Homo sapiens) of 79.6%. It also gave a melting point of 153 to 154 °C.

In the case of `C[C@H](CCC(=O)OCc1cn(CC(=O)c2ccccc2)nn1)C1CCC2C3CCC4C[C@H](O)CC[C@]4(C)C3C[C@H](O)[C@@]21C` (stereo partly drawn) [6ba, (1-(2-Oxo-2-phenylethyl)-1H-1,2,3-triazol-4-yl)methyl (4R)-4-((3R,10S,12S,13R)-3,12-dihydroxy-10,13-dimethylhexadecahydro-1H-cyclopenta[a]phenanthren-17-yl)pentanoate], the viability at 48 h, 10 µM [1] is reported as 88.9%, the viability at 10 µM ([2]; Mus musculus) is reported as 97.8% and the viability at 10 µM ([3]; Homo sapiens) is reported as 91.9%. The melting point was 143 to 144 °C.

With `Cc1ccc(C(=O)Cn2cc(COC(=O)CC[C@@H](C)C3CCC4C5CCC6C[C@H](O)CC[C@]6(C)C5C[C@H](O)[C@@]43C)nn2)cc1` (stereo partly drawn) [6bb, (1-(2-Oxo-2-(p-tolyl)ethyl)-1H-1,2,3-triazol-4-yl)methyl (4R)-4-((3R,10S,12S,13R)-3,12-dihydroxy-10,13-dimethylhexadecahydro-1H-cyclopenta[a]phenanthren-17-yl)pentanoate] the viability at 48 h, 10 µM [1] was 89.2%, the viability at 10 µM ([2]; Mus musculus) was 85.7% and the viability at 10 µM ([3]; Homo sapiens) was 67.6%. It also gave a melting point of 123 to 125 °C.

Compound `COc1ccc(C(=O)Cn2cc(COC(=O)CC[C@@H](C)C3CCC4C5CCC6C[C@H](O)CC[C@]6(C)C5C[C@H](O)[C@@]43C)nn2)cc1` (stereo partly drawn) [6bc, (1-(2-(4-Methoxyphenyl)-2-oxoethyl)-1H-1,2,3-triazol-4-yl)methyl (4R)-4-((3R,10S,12S,13R)-3,12-dihydroxy-10,13-dimethylhexadecahydro-1H-cyclopenta[a]phenanthren-17-yl)pentanoate] has a viability at 48 h, 10 µM [1] of 90.8%, a viability at 10 µM ([2]; Mus musculus) of 68.4% and a viability at 10 µM ([3]; Homo sapiens) of 69.6%. The melting point was 144 to 145 °C.

`C[C@H](CCC(=O)OCc1cn(CC(=O)c2ccc(F)cc2)nn1)C1CCC2C3CCC4C[C@H](O)CC[C@]4(C)C3C[C@H](O)[C@@]21C` (stereo partly drawn) [6bd, (1-(2-(4-Fluorophenyl)-2-oxoethyl)-1H-1,2,3-triazol-4-yl)methyl (4R)-4-((3R,10S,12S,13R)-3,12-dihydroxy-10,13-dimethylhexadecahydro-1H-cyclopenta[a]phenanthren-17-yl)pentanoate] gave a viability at 48 h, 10 µM [1] of 89.4%, a viability at 10 µM ([2]; Mus musculus) of 52.4% and a viability at 10 µM ([3]; Homo sapiens) of 79.6%. It also gave a melting point of 127 to 128 °C.

Work on `C[C@H](CCC(=O)OCc1cn(CC(=O)c2ccc(Cl)cc2)nn1)C1CCC2C3CCC4C[C@H](O)CC[C@]4(C)C3C[C@H](O)[C@@]21C` (stereo partly drawn) [6be, (1-(2-(4-Chlorophenyl)-2-oxoethyl)-1H-1,2,3-triazol-4-yl)methyl (4R)-4-((3R,10S,12S,13R)-3,12-dihydroxy-10,13-dimethylhexadecahydro-1H-cyclopenta[a]phenanthren-17-yl)pentanoate] yielded a viability at 48 h, 10 µM [1] of 88.4%, a viability at 10 µM ([2]; Mus musculus) of 76% and a viability at 10 µM ([3]; Homo sapiens) of 68.5%. The melting point was 92 to 93 °C.

Work on `C[C@H](CCC(=O)OCc1cn(CC(=O)c2ccc(Br)cc2)nn1)C1CCC2C3CCC4C[C@H](O)CC[C@]4(C)C3C[C@H](O)[C@@]21C` (stereo partly drawn) [6bf, (1-(2-(4-Bromophenyl)-2-oxoethyl)-1H-1,2,3-triazol-4-yl)methyl (4R)-4-((3R,10S,12S,13R)-3,12-dihydroxy-10,13-dimethylhexadecahydro-1H-cyclopenta[a]phenanthren-17-yl)pentanoate] yielded a viability at 48 h, 10 µM [1] of 86.8%, an IC50 [2] of 9.68 ± 1.59 µM and a viability at 10 µM ([2]; Mus musculus) of 60.9%. For the same compound, the IC50 ([2]; Mus musculus) was < 19 µM, the IC50 [3] was 18.3 ± 1.48 µM and the viability at 10 µM ([3]; Homo sapiens) was 44.4%. For the same compound, the IC50 ([3]; Homo sapiens, MCF7, 48 h) was < 19 µM and the melting point was 176 to 177 °C.

In the case of `COc1ccc(C(=O)Cn2cc(CNC(=O)CC[C@@H](C)C3CCC4C5C(C[C@H](O)[C@@]43C)[C@@]3(C)CC[C@@H](O)CC3C[C@H]5O)nn2)cc1` (stereo partly drawn) [6cc, (4R)-N-((1-(2-(4-Methoxyphenyl)-2-oxoethyl)-1H-1,2,3-triazol-4-yl)methyl)-4-((3R,7R,10S,12S,13R)-3,7,12-trihydroxy-10,13-dimethylhexadecahydro-1H-cyclopenta[a]phenanthren-17-yl)pentanamide], the viability at 48 h, 10 µM [1] is reported as 96.8%, the viability at 10 µM ([2]; Mus musculus) is reported as 56.8% and the viability at 10 µM ([3]; Homo sapiens) is reported as 95.4%.

For `CC(=O)O[C@@]12CO[C@@H]1C[C@H](O)[C@@]1(C)C(=O)[C@H](O)C3=C(C)[C@@H](OC(=O)[C@H](O)[C@@H](NC(=O)OC(C)(C)C)c4ccccc4)C[C@@](O)([C@@H](OC(=O)c4ccccc4)[C@H]21)C3(C)C` [DTX, Docetaxel, reference compound], the viability at 10 µM ([2]; Mus musculus) was 56.9%, the IC50 ([2]; Mus musculus) was 13.8 ± 1.07 µM and the viability at 10 µM ([3]; Homo sapiens) was 46.5%. It also gave an IC50 ([3]; Homo sapiens, MCF7, 48 h) of 9.46 ± 0.98 µM.
